{"source": "PubChem BioAssay AID1259411", "about": "(Chemical Carcinogenesis Research Information System (CCRIS), 2018)", "system": "rodent carcinogenicity bioassays, tumor incidence", "assay": "CCRIS carcinogenicity studies", "outline": "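NCI-built, expert-reviewed records of carcinogenicity and related test outcomes (mutagenicity, tumor promotion/inhibition) compiled from published and report sources, historical span 1985-2011, not updated.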", "note": "Activity calls are given as the source filed them. How the calls were made is not given here."}
{"smiles": "CN(C)C(=O)Nc1ccc(Cl)c(Cl)c1", "values": [{"measurement": "carcinogen call", "setting": "Species: MOUSE, Strain/Sex: SWISS/FEMALE, Route: DERMAL, Dose: 0, 250 MG/KG IN 100 µL DMSO TO INTERSCAPULAR REGION 3/WK FOR 3 WK FOLLOWED 1 WK LATER BY 100 µL ACETONE 3/WK FOR DURATIO", "result": "inactive; negative"}, {"measurement": "carcinogen call", "setting": "Species: Mouse, Strain/Sex: Bor strain NMRI SPF HAN/Female (60/Group), Route: Oral, Dose: 0, 25, 250, 2500 ppm 98.7% diuron in diet for 24 mo, study duration 24 mo, Dose: 0, 25, 250, 2500 ppm 98.7% diuron in diet for 24 mo, study duration 24 mo, Tumor Site: Type of Lesion: Mammary gland: Adenocarcinoma (highest dose only)", "result": "active; positive. (ca department of pesticide regulation reviewer evaluates as a possibl"}, {"measurement": "carcinogen call", "setting": "Species: Mouse, Strain/Sex: Bor strain NMRI SPF HAN/Male (60/Group), Route: Oral, Dose: 0, 25, 250, 2500 ppm 98.7% diuron in diet for 24 mo, study duration 24 mo, Dose: 0, 25, 250, 2500 ppm 98.7% diuron in diet for 24 mo, study duration 24 mo", "result": "inactive; negative"}, {"measurement": "carcinogen call", "setting": "Species: Rat, Strain/Sex: Wistar/Female (50/Group), Route: Oral, Dose: 0, 25, 250, 2500 ppm 98.7% diuron in diet for 2 yr, study duration 2 yr, Dose: 0, 25, 250, 2500 ppm 98.7% diuron in diet for 2 yr, study duration 2 yr, Tumor Site: Type of Lesion: Urinary bladder: Transitional epithelial cell carcinoma (highest dose only)", "result": "active; positive. (ca department of pesticide regulation reviewer evaluates as a possibl"}, {"measurement": "carcinogen call", "setting": "Species: Rat, Strain/Sex: Wistar/Male (50/Group), Route: Oral, Dose: 0, 25, 250, 2500 ppm 98.7% diuron in diet for 2 yr, study duration 2 yr, Dose: 0, 25, 250, 2500 ppm 98.7% diuron in diet for 2 yr, study duration 2 yr, Tumor Site: Type of Lesion: Urinary bladder: Transitional epithelial cell carcinoma (highest dose only). Kidney: Epithelial cell tumors in renal pel", "result": "active; positive. (ca department of pesticide regulation reviewer evaluates as a possibl"}]}
{"smiles": "CCCCN(N=O)C(CCC)OO", "note": "(stereo not drawn)", "values": [{"measurement": "carcinogen call", "setting": "Species: RAT, Strain/Sex: F344/MALE, Route: SUBCUTANEOUS, Dose: 38 UMOL/KG IN OLIVE OIL 1/WK FOR 10 WK, Tumor Site: Type of Lesion: INJECTION SITE: MALIGNANT FIBROUS HISTIOCYTOMA", "result": "active; positive"}]}
{"smiles": "OC1c2ccc3cc4ccccc4nc3c2C2OC2C1O", "note": "(stereo not drawn)", "values": [{"measurement": "carcinogen call", "setting": "Species: MOUSE, Strain/Sex: SWISS/FEMALE, Route: INTRAPERITONEAL, Dose: 0, 0.5 UMOL GIVEN AS 70 NMOL IN 5 µL DMSO WITHIN 24 HR OF BIRTH, 140 NMOL IN 10 µL DMSO ON D 8 OF LIFE, AND 280 NMOL IN, Tumor Site: Type of Lesion: LUNG: ADENOMA", "result": "active; positive"}, {"measurement": "carcinogen call", "setting": "Species: MOUSE, Strain/Sex: SWISS/FEMALE, Route: INTRAPERITONEAL, Dose: 0, 1.05 UMOL GIVEN AS 150 NMOL IN 5 µL DMSO WITHIN 24 HR OF BIRTH, 300 NMOL IN 10 µL DMSO ON D 8 OF LIFE, AND 600 NMOL I, Tumor Site: Type of Lesion: LUNG: ADENOMA", "result": "active; positive"}, {"measurement": "carcinogen call", "setting": "Species: MOUSE, Strain/Sex: SWISS/MALE, Route: INTRAPERITONEAL, Dose: 0, 0.5 UMOL GIVEN AS 70 NMOL IN 5 µL DMSO WITHIN 24 HR OF BIRTH, 140 NMOL IN 10 µL DMSO ON D 8 OF LIFE, AND 280 NMOL IN, Tumor Site: Type of Lesion: LUNG: ADENOMA, LIVER: NEOPLASTIC NODULE", "result": "active; positive"}, {"measurement": "carcinogen call", "setting": "Species: MOUSE, Strain/Sex: SWISS/MALE, Route: INTRAPERITONEAL, Dose: 0, 1.05 UMOL GIVEN AS 150 NMOL IN 5 µL DMSO WITHIN 24 HR OF BIRTH, 300 NMOL IN 10 µL DMSO ON D 8 OF LIFE, AND 600 NMOL I, Tumor Site: Type of Lesion: LUNG: ADENOMA, LIVER: NEOPLASTIC NODULE", "result": "active; positive"}]}
{"smiles": "C=CC(O)c1ccc(OC)cc1", "note": "(stereo not drawn)", "values": [{"measurement": "carcinogen call", "setting": "Species: MOUSE, Strain/Sex: CD-1/MALE, Route: SUBCUTANEOUS, Dose: 0, 0.17 UMOL IN 0.025 ML TRIOCTANOIN WITHIN 24 H AFTER BIRTH THEN 0, 0.47 UMOL IN 0.05 ML TRIOCTANOIN ON D 8, 0, 0.95 UM, Dose: 0, 0.17 UMOL IN 0.025 ML TRIOCTANOIN WITHIN 24 H AFTER BIRTH THEN 0, 0.47 UMOL IN 0.05 ML TRIOCTANOIN ON D 8, 0, 0.95 µM, Tumor Site: Type of Lesion: LIVER: HEPATOCELLULAR CARCINOMA", "result": "active; positive"}]}
{"smiles": "O=Nc1ccc(Nc2ccccc2)cc1", "values": [{"measurement": "carcinogen call", "setting": "Species: MOUSE, Strain/Sex: B6C3F1/FEMALE, Route: ORAL, Dose: 0, 4254, 9000 PPM IN DIET, TWA, Dose: 0, 4254, 9000 PPM IN DIET, TWA", "result": "inactive; negative"}, {"measurement": "carcinogen call", "setting": "Species: MOUSE, Strain/Sex: B6C3F1/MALE, Route: ORAL, Dose: 0, 4254, 9000 PPM IN DIET, TWA, Dose: 0, 4254, 9000 PPM IN DIET, TWA, Tumor Site: Type of Lesion: LIVER: HEPATOCELLULAR ADENOMA OR CARCINOMA", "result": "active; positive"}, {"measurement": "carcinogen call", "setting": "Species: RAT, Strain/Sex: F344/FEMALE, Route: ORAL, Dose: 0, 2500, 5000 PPM IN DIET, Dose: 0, 2500, 5000 PPM IN DIET", "result": "inactive; negative"}, {"measurement": "carcinogen call", "setting": "Species: RAT, Strain/Sex: F344/MALE, Route: ORAL, Dose: 0, 2500, 5000 PPM IN DIET, Dose: 0, 2500, 5000 PPM IN DIET, Tumor Site: Type of Lesion: LIVER: HEPATOCELLULAR CARCINOMA OR NEOPLASTIC NODULE", "result": "active; positive"}]}
{"smiles": "CCN(CC(F)(F)F)N=O", "values": [{"measurement": "carcinogen call", "setting": "Species: RAT, Strain/Sex: SPRAGUE-DAWLEY/MALE, Route: GAVAGE, Dose: 7.5, 15, 30, 60 MG/KG IN VEGETABLE OIL 2/WK, Dose: 7.5, 15, 30, 60 MG/KG IN VEGETABLE OIL 2/WK, Tumor Site: Type of Lesion: ESOPHAGUS: CARCINOMA, NASAL CAVITY: SQUAMOUS CELL CARCINOMA", "result": "active; positive"}]}
{"smiles": "CC1CN(N=O)CCO1", "note": "(stereo not drawn)", "values": [{"measurement": "carcinogen call", "setting": "Species: HAMSTER, Strain/Sex: SYRIAN/MALE, Route: INTRAGASTRIC, Dose: 0, 27 MG/ML IN 0.2 ML STERILIZED WATER 1/WK FOR 30 WK (TOTAL DOSE 162 MG) (STUDY DURATION: LIFESPAN), Tumor Site: Type of Lesion: LIVER: HEMANGIOSARCOMA, NASAL CAVITY: CARCINOMA, LUNG: CARCINOMA, ADENOMA, FORESTOMACH: PAPILLOMA, TRACHEA: ADENOMA, Tumor Site: Type of Lesion: LIVER: HEMANGIOSARCOMA, NASAL CAVITY: CARCINOMA, LUNG: CARCINOMA, ADENOMA, FORESTOMACH: PAPILLOMA, TRACHEA: ADENOMA", "result": "active; positive"}]}
{"smiles": "OC[C@@H](O)[C@@H](O[C@@H]1O[C@H](CO)[C@H](O)[C@H](O)[C@H]1O)[C@H](O)[C@@H](O)CO", "values": [{"measurement": "carcinogen call", "setting": "Species: MOUSE, Strain/Sex: CPB:SWISS/FEMALE, Route: ORAL, Dose: 0, 2, 5, 10% IN DIET FOR 104 WK (STUDY DURATION: 734 D), Dose: 0, 2, 5, 10% IN DIET FOR 104 WK (STUDY DURATION: 734 D)", "result": "inactive; negative"}, {"measurement": "carcinogen call", "setting": "Species: MOUSE, Strain/Sex: CPB:SWISS/MALE, Route: ORAL, Dose: 0, 2, 5, 10% IN DIET FOR 104 WK (STUDY DURATION: 730 D), Dose: 0, 2, 5, 10% IN DIET FOR 104 WK (STUDY DURATION: 730 D)", "result": "inactive; negative"}, {"measurement": "carcinogen call", "setting": "Species: RAT, Strain/Sex: SPF/FEMALE, Route: ORAL, Dose: 0, 2, 5, 10% IN DIET FOR DURATION OF STUDY ADMINISTERED TO OFFSPRING OF RATS FED THE SAME DIETS (STUDY DURATION: 130 WK), Dose: 0, 2, 5, 10% IN DIET FOR DURATION OF STUDY ADMINISTERED TO OFFSPRING OF RATS FED THE SAME DIETS (STUDY DURATION: 130 WK)", "result": "inactive; negative"}, {"measurement": "carcinogen call", "setting": "Species: RAT, Strain/Sex: SPF/MALE, Route: ORAL, Dose: 0, 2, 5, 10% IN DIET FOR DURATION OF STUDY ADMINISTERED TO OFFSPRING OF RATS FED THE SAME DIETS (STUDY DURATION: 130 WK), Dose: 0, 2, 5, 10% IN DIET FOR DURATION OF STUDY ADMINISTERED TO OFFSPRING OF RATS FED THE SAME DIETS (STUDY DURATION: 130 WK), Tumor Site: Type of Lesion: TESTES: LEYDIG CELL TUMOR", "result": "active; positive"}]}
{"smiles": "O[C@H]1C=Cc2c(ccc3c2-c2cccc4cccc-3c24)[C@@H]1O", "values": [{"measurement": "carcinogen call", "setting": "Species: MOUSE, Strain/Sex: CD-1/FEMALE, Route: INTRAPERITONEAL, Dose: 0, 0.275, 1.1 UMOL (TOTAL DOSE) ADMINISTERED OVER DAYS 1, 8, AND 15 OF LIFE (STUDY DURATION: 52 WEEKS), Dose: 0, 0.275, 1.1 UMOL (TOTAL DOSE) ADMINISTERED OVER DAYS 1, 8, AND 15 OF LIFE (STUDY DURATION: 52 WEEKS), Tumor Site: Type of Lesion: LUNG: ALVEOLAR/BRONCHIOLAR CARCINOMA", "result": "active; positive"}, {"measurement": "carcinogen call", "setting": "Species: MOUSE, Strain/Sex: CD-1/MALE, Route: INTRAPERITONEAL, Dose: 0, 0.275, 1.1 UMOL(TOTAL DOSE) ADMINISTERED OVER DAYS 1, 8, AND 15 OF LIFE (STUDY DURATION: 52 WEEKS), Dose: 0, 0.275, 1.1 UMOL(TOTAL DOSE) ADMINISTERED OVER DAYS 1, 8, AND 15 OF LIFE (STUDY DURATION: 52 WEEKS), Tumor Site: Type of Lesion: LUNG: ALVEOLAR/BRONCHIOLAR CARCINOMA, LIVER: ADENOMA OR CARCINOMA", "result": "active; positive"}]}
